Where a SMILES comes first, the peptide text is derived from it. [ ]: non-standard residue; d: D form. pS = N[C@@H](COP(=O)(O)O)C(=O)O
What was measured:
[1] = background statement; cited from earlier work
[2] = tested on: SH-SYSY cells; assay: CCK8 cell viability assay, rotenone toxicity; assay type: cell-based, human; details: Rot 2.5 μM and JP1 25, 50, 100 μM, 24 and 48 hours, dose-dependent
Description: (§1) The example is to evaluate the protective effects of JP1 on the viability of mouse hippocampal neuronal cells HT-22 and human […] cells (SH-SYSY) induced by Rotenone (Rot) (CCK8 assay).
(§2) 1) Cell culture and treatment: The human neuroblastoma cell line SH-SYSY and the mouse hippocampal neuron cell line HT-22 were cultured in DMEM medium containing 100 µg/mL streptomycin, 100 U/mL penicillin, and 10% fetal bovine serum at 37° C. in a 5% CO2 environment. The cells were treated with Rotenone (2.5 μM) and JWA targeting peptide JP1 (0, 25, 50, 100 μM) for 24 and 48 hours, respectively. Model cells were tested for cell viability using CCK8 assay, expression levels of inflammasome 3 (NLRP3) and apoptosis related proteins (PARP1, Cleaved caspase1, 3, 9) using Western Blot, and mitochondrial membrane potential (JC1) and intracellular reactive oxygen species (ROS) levels using immunofluorescence staining.
(§3) Cells were inoculated in a 96-well plate at a density of 8000 cells/well for adherence for 24 hours. The culture medium was discarded and the cells were incubated for 24 and 48 hours with different concentrations of the drug. […] The absorbance value was read by an enzyme immunoassay detector at 450 nm. The cell viability (3 parallel samples in each group, and repeat 3 times) was calculated.

[3] = tested on: HT-22 cells; assay: CCK8 cell viability assay, rotenone toxicity; assay type: cell-based, mouse; details: Rot 2.5 μM and JP1 25, 50, 100 μM, 24 and 48 hours, dose-dependent
Description: as §1, §2, §3

N=C(N)NCCC[C@H](NC(=O)[C@H](Cc1ccccc1)NC(=O)[C@H](CCCNC(=N)N)NC(=O)[C@H](CC(=O)O)NC(=O)[C@H](COP(=O)(O)O)NC(=O)CNC(=O)[C@@H]1CCCN1C(=O)[C@@H](N)Cc1ccccc1)C(=O)NCC(=O)N[C@@H](CC(=O)O)C(=O)O [JP1] (H-FPG[pS]DRFRGD-OH)
crossing the blood-brain barrier [1]: can cross the blood-brain barrier | cell viability, protection against cytotoxicity of Rot [2]: significant protective effect | cell viability, protection against cytotoxicity of Rot [3]: significant protective effect

From US20250152659A1, “METHOD FOR PREVENTING OR TREATING PARKINSON'S DISEASE” (Suzhou Mingren Pharmaceutical Biotechnology Co., Ltd., priority 2022, published 2025)
